Laboratory results reported in publication PMC7275043 (Nature Communications, 2020).

Conditions: mouse, in vivo, iv

## Ac-WDLIQLIVSDGSDLIQLIVSD-NH2 [12B]
  half-life in blood: < 10 min
